Where two headings read alike, the source gives them in different places.
How the values were obtained:
5HT2A receptor [1] = biological target: T1, 5HT2A receptor (Homo sapiens, UniProt P28223); assay: biochemical; format: binding; design: expressed in transfected cells; crude membranes
5HT2A receptor [2] = biological target: T1, 5HT2A receptor; assay: cell-based; design: expressed in transfected cells; host or cells: HEK293T cells, transient co-transfection; details: for Emax: HEK-293T
5HT2A receptor [3] = biological target: T1, 5HT2A receptor; assay: cell-based; design: expressed in transfected cells; host or cells: HEK293T cells, transient co-transfection; details: for Emax: HEK-293T; remark: listed apart in the source
[4] = 5HT2A Ki (nM), secondary radioligand binding, Ki from IC50 by Cheng-Prusoff
[5] = 5HT2A β-Arr EC50 (nM), BRET1 beta-arrestin2 recruitment, HEK293T cells
[6] = BRET1 beta-arrestin2 recruitment, HEK293T cells, normalized to 5-HT, read-out: 5HT2A β-Arr Emax (%)
[7] = 5HT2A Gq EC50 (nM), BRET2 Gαq dissociation, HEK293T cells
[8] = BRET2 Gαq dissociation, HEK293T cells, normalized to 5-HT, read-out: 5HT2A Gq Emax (%)
[9] = BRET2 Gαq dissociation, HEK293T cells, read-out: 5HT2A Gq EC50
[10] = secondary radioligand binding, Ki from IC50 by Cheng-Prusoff, read-out: 5HT2A Ki
[11] = BRET1 beta-arrestin2 recruitment, HEK293T cells, read-out: 5HT2A β-Arr EC50
[12] = 5HT2A Ki (nM), secondary binding assay, Cheng-Prusoff
[13] = 5HT2A β-Arr EC50 (nM), BRET1 beta-arrestin2 recruitment, HEK293T
[14] = read-out: 5HT2A β-Arr Emax (%), BRET1 beta-arrestin2 recruitment, HEK293T, normalized to 5-HT
[15] = 5HTA Gq EC50 (nM), BRET2 Gαq dissociation, HEK293T
[16] = read-out: 5HTA Gq Emax (%), BRET2 Gαq dissociation, HEK293T, normalized to 5-HT
[17] = BRET1 beta-arrestin2 recruitment, HEK293T, normalized to 5-HT, read-out: 5HT2A β-Arr Emax (%)
[18] = BRET2 Gαq dissociation, HEK293T, normalized to 5-HT, read-out: 5HTA Gq Emax (%)

T1 sequence (P28223 whole entry): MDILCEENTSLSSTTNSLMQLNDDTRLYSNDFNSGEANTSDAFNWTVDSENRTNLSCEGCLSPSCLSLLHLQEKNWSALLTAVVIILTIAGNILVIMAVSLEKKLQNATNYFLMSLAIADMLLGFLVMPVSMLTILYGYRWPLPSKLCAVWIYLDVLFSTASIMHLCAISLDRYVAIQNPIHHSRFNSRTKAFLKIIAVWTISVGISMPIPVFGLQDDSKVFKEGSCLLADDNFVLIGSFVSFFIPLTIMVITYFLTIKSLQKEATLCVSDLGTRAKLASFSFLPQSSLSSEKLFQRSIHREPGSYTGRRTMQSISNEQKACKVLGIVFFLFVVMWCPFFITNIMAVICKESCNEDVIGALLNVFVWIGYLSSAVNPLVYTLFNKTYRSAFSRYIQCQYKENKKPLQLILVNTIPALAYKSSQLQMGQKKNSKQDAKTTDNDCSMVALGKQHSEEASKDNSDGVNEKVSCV

SMILES | Ki (5HT2A receptor [1]; [4]) | EC50 (5HT2A receptor [2]; [5]) | Emax (5HT2A receptor [2]; [6]) | Emax (5HT2A receptor [3]; [8]) | EC50 (5HT2A receptor [3]; [9]) | Ki (5HT2A receptor [1]; [12]) | EC50 (5HT2A receptor [2]; [13]) | EC50 (5HT2A receptor [3]; [15]) | Emax (5HT2A receptor [2]; [17]) | Emax (5HT2A receptor [3]; [18]) | also measured
Cc1ccnc2[nH]cc(C3=CCCNC3)c12 [Example 9, 4-methyl-3-(1,2,5,6-tetrahydropyridin-3-yl)-1H-pyrrolo[2,3-b]pyridine] | 8510 nM | 749 nM | 72.8% | 74.2% |  |  |  |  |  |  | EC50 (5HT2A receptor [3]; [7]): 489 nM
N#Cc1ccc2[nH]nc(C3=CCCNC3)c2c1 [Example 86, 3-(1,2,5,6-tetrahydropyridin-3-yl)-1H-indazole-5-carbonitrile] | 370 nM | 354 nM | 95.1% | 90.2% | 15.9 nM |  |  |  |  |  | 
COc1ccc2[nH]nc(C3=CCCN(C)C3)c2c1 [Example 104, 5-methoxy-3-(1-methyl-1,2,5,6-tetrahydropyridin-3-yl)-1H-indazole] | 501 nM | 681 nM | 83.7% | 88.2% | 82.8 nM |  |  |  |  |  | 
CN1CCC=C(c2c[nH]c3c(F)cccc23)C1 [Example 56, 7-fluoro-3-(1-methyl-1,2,5,6-tetrahydropyridin-3-yl)-1H-indole] |  |  | 49.5% | 96.9% | 16.8 nM |  |  |  |  |  | Ki (5HT2A receptor [1]; [10]): 59.8 nM; EC50 (5HT2A receptor [2]; [11]): 57.7 nM
CCCN1CCC=C(c2c[nH]c3c(Cl)c(F)ccc23)C1 [Example 160] |  |  |  |  |  | 151 nM | 144 nM | 74.5 nM |  |  | Emax (5HT2A receptor [2]; [14]): 30.9%; Emax (5HT2A receptor [3]; [16]): 84.1%
Clc1cccc2c(C3=CC4CCC(C3)N4)n[nH]c12 (stereo not shown) [Example 221, 3-(8-azabicyclo[3.2.1]oct-2-en-3-yl)-7-chloro-1H-indazole] |  |  |  |  |  | 1400 nM | 1320 nM | 108 nM | 66.9% | 59.3% | 
FC(F)(F)CN1CCC=C(c2n[nH]c3c(Cl)cccc23)C1 [Example 152, 7-chloro-3-(1-(2,2,2-trifluoroethyl)-1,2,5,6-tetrahydropyridin-3-yl)-1H-indazole] |  |  |  |  |  | 389 nM | 1050 nM | 1570 nM |  |  | Emax (5HT2A receptor [2]; [14]): 66.5%; Emax (5HT2A receptor [3]; [16]): 89.8%
CN1CCCC(c2c[nH]c3c(Cl)cccc23)C1 (single isomer, unassigned) [Example 113, 7-chloro-3-(1-methylpiperidin-3-yl)-1H-indole] | 1430 nM | 1520 nM |  |  |  |  |  |  |  |  | Emax (5HT2A receptor [2]; read-out: 5HT2A β-Arr Emax (%), BRET1 beta-arrestin2 recruitment, HEK293T cells, normalized to 5-HT): 62.6%; EC50 (5HT2A receptor [3]; [7]): 279 nM; Emax (5HT2A receptor [3]; read-out: 5HT2A Gq Emax (%), BRET2 Gαq dissociation, HEK293T cells, normalized to 5-HT): 84.9%
Cc1c(F)ccc2c(C3=CCCN(C)C3)c[nH]c12 [Example 127, 6-fluoro-7-methyl-3-(1-methyl-1,2,5,6-tetrahydropyridin-3-yl)-1H-indole] |  |  |  |  |  | 121 nM |  |  | 48.9% | 90.2% | EC50 (5HT2A receptor [2]; BRET1 beta-arrestin2 recruitment, HEK293T, read-out: 5HT2A β-Arr EC50): 62.9 nM; EC50 (5HT2A receptor [3]; BRET2 Gαq dissociation, HEK293T, read-out: 5HTA Gq EC50): 26.6 nM
Cc1ccnc2[nH]cc(C3=CCCN(C)C3)c12 [Example 13, 4-methyl-3-(1-methyl-1,2,5,6-tetrahydropyridin-3-yl)-1H-pyrrolo[2,3-b]pyridine] |  |  | 38.9% | 68.7% | 106 nM |  |  |  |  |  | Ki (5HT2A receptor [1]; [10]): 63.5 nM; EC50 (5HT2A receptor [2]; [11]): 765 nM
CCc1cccc2c(C3=CCCN(C4CC4)C3)n[nH]c12 [Example 238, 3-(1-cyclopropyl-1,2,5,6-tetrahydropyridin-3-yl)-7-ethyl-1H-indazole] |  |  |  |  |  | 634 nM | 1020 nM | 101 nM | 50% | 42.2% | 
CCc1cccc2c(C3=CCCN(Cc4ccccc4)C3)c[nH]c12 [Example 69, 3-(1-benzyl-1,2,5,6-tetrahydropyridin-3-yl)-7-ethyl-1H-indole] | 199 nM | 1740 nM | 63.5% | 49.7% |  |  |  |  |  |  | EC50 (5HT2A receptor [3]; [7]): 98.2 nM
Clc1[nH]c2ccccc2c1C1=CCCNC1 [Example 64, 2-chloro-3-(1,2,5,6-tetrahydropyridin-3-yl)-1H-indole] | 186 nM | 219 nM | 60.2% | 91.8% |  |  |  |  |  |  | EC50 (5HT2A receptor [3]; [7]): 61.9 nM
CCCN1CCC=C(c2c[nH]c3c(Cl)cc(F)cc23)C1 [Example 159] |  |  |  |  |  | 126 nM | 66.9 nM | 17.5 nM |  |  | Emax (5HT2A receptor [2]; [14]): 39.7%; Emax (5HT2A receptor [3]; [16]): 90.3%
Cc1cccc2[nH]cc(C3=CCCNC3)c12 [Example 17, 4-methyl-3-(1,2,5,6-tetrahydropyridin-3-yl)-1H-indole] |  |  | 42% | 85.7% | 22 nM |  |  |  |  |  | Ki (5HT2A receptor [1]; [10]): 11.5 nM; EC50 (5HT2A receptor [2]; [11]): 147 nM
CCCN1CCC=C(c2c[nH]c3c(C)c(F)ccc23)C1 [Example 162, 6-fluoro-7-methyl-3-(1-propyl-1,2,5,6-tetrahydropyridin-3-yl)-1H-indole] |  |  |  |  |  | 1140 nM | 303 nM | 260 nM | 23.4% | 80.6% | 
N#Cc1cccc2[nH]nc(C3=CCCNC3)c12 [Example 82, 3-(1,2,5,6-tetrahydropyridin-3-yl)-1H-indazole-4-carbonitrile] | 153 nM | 562 nM | 87.9% | 95.9% | 12 nM |  |  |  |  |  | 
CCc1cccc2c(C3=CCCN(C)C3)c[nH]c12 [Example 52, 7-ethyl-3-(1-methyl-1,2,5,6-tetrahydropyridin-3-yl)-1H-indole] |  | 880 nM | 73.4% | 89.3% | 25 nM |  |  |  |  |  | Ki (5HT2A receptor [1]; [10]): 42 nM
FC(F)(F)CCN1CCC=C(c2n[nH]c3c(Cl)cccc23)C1 [Example 164, 7-chloro-3-(1-(3,3,3-trifluoropropyl)-1,2,5,6-tetrahydropyridin-3-yl)-1H-indazole] |  |  |  |  |  | > 10000 nM | 836 nM | 518 nM | 23.3% | 52.9% | 
Fc1cccc2c(C34CCNCC3C4)n[nH]c12 (stereo not shown) [Example 229, 3-(3-azabicyclo[4.1.0]heptan-6-yl)-7-fluoro-1H-indazole] |  |  |  |  |  | 1900 nM | 2070 nM | 236 nM | 90.2% | 83.7% | 
Fc1cccc2c(C34CNCC3C4)n[nH]c12 (stereo not shown) [Example 187, 3-(3-azabicyclo[3.1.0]hexan-1-yl)-7-fluoro-1H-indazole] |  |  |  |  |  | 699 nM | 648 nM | 136 nM | 35% | 71.6% | 
COc1cnc2[nH]cc(C3=CCCNC3)c2c1 [Example 2, 5-methoxy-3-(1,2,5,6-tetrahydropyridin-3-yl)-1H-pyrrolo[2,3-b]pyridine] | 294 nM | 1040 nM | 61.6% | 73.7% |  |  |  |  |  |  | EC50 (5HT2A receptor [3]; [7]): 135 nM
Clc1ccc2c(C3=CCCNC3)c[nH]c2c1 [Example 31, 6-chloro-3-(1,2,5,6-tetrahydropyridin-3-yl)-1H-indole] | 160 nM | 1500 nM | 112% | 93% |  |  |  |  |  |  | EC50 (5HT2A receptor [3]; [7]): 106 nM

Reference: patent US20260265246A1 (ICAHN SCHOOL OF MEDICINE AT MOUNT SINAI, priority 2021, published 2026)
